Source: US20220096411A1, “COMBINING METABOLIC STIMULATION AND AMINO ACIDS TO SENSITIZE TOLERANT BACTERIA TO ANTIBIOTICS” (priority 2019, published 2022)

How the values were obtained:
[1] = system: E. coli genetic knockout ΔdadA; assay: Ampicillin sensitization of knockout strain unable to catabolize D-alanine into pyruvate; format: cell-based, Escherichia coli; settings: FIG. 2A; for sensitivity of tolerant ΔdadA bacteria to ampicillin on amino acid supplementation alone: no pyruvate; for potentiation of ampicillin sensitivity of ΔdadA strain by amino acid: strain supplemented with pyruvate
[2] = system: Escherichia coli K12 strain MG1655; assay: Killing assay (CFU) of tolerant stationary phase cultures; format: cell-based; settings: for ability of individual carbon source to restore β-lactam antibiotic sensitivity (CFU/mL): tolerant cultures grown in 100% LB medium, FIG. 5
[3] = system: Escherichia coli K12 strain MG1655; assay: MIC determination (metabolite-enabled MIC from optical density dose-response); format: cell-based; settings: for change of ampicillin MIC on amino acid supplementation: across all tested growth-supporting metabolites (carbon sources), FIG. 2B; for metabolite-enabled MIC of β-lactams upon metabolite supplementation: ampicillin, carbenicillin, mecillinam, penicillin, 1% LB; for metabolite-enabled MIC of β-lactams upon metabolite supplementation / metabolite-enabled MIC, D-isomer compared with L-isomer: metabolite 10 mM; for metabolite-enabled MIC, D-isomer compared with L-isomer: β-lactams of FIG. 1B; for potentiation of the antibiotic by D-amino acids: with pyruvate (FIG. 2E) or without metabolic stimulant (FIG. 2F), ampicillin potentiated, comparators D-cycloserine, ciprofloxacin, gentamicin are the non-β-lactams
[4] = system: clinical isolate of Escherichia coli (isolate DICON-146); assay: Killing assay, ampicillin-resistant ESBL clinical isolate in stationary phase; format: cell-based; settings: D-methionine added on top of sulbactam and pyruvate; FIG. 3C
[5] = system: Escherichia coli K12 strain MG1655; format: cell-based

C[C@@H](N)C(=O)O [D-alanine]
sensitivity of tolerant ΔdadA bacteria to ampicillin on amino acid supplementation alone [1]: equally insensitive to ampicillin | potentiation of ampicillin sensitivity of ΔdadA strain by amino acid [1]: potentiate sensitivity to ampicillin | performance of metabolite in sensitizing cultures to ampicillin (CFU confirmed cell death) ([2]; cultures treated with ampicillin and metabolite, FIG. 1A): strong | change of ampicillin MIC on amino acid supplementation [3]: consistently lowered the ampicillin MIC | metabolite-enabled MIC of β-lactams upon metabolite supplementation ([3]; FIG. 1B): lowest observed MICs | metabolite-enabled MIC, D-isomer compared with L-isomer [3]: outperformed their corresponding L-isomers

N[C@@H]1CONC1=O [D-cycloserine, reference compound]
potentiation of the antibiotic by D-amino acids [3]: specific to β-lactam antibiotics

CSCC[C@@H](N)C(=O)O [D-methionine]
restoration of ampicillin sensitivity of resistant (ESBL) E. coli in stationary phase [4]: further potentiated killing by lower drug concentrations | effect of D-methionine on population density (CFU) ([5]; used alone or in combination with xylose, FIG. 7B): did not increase population density | sensitization of stationary phase MG1655 to ampicillin in MOPS-rich medium ([2]; MOPS-rich medium, D-methionine added on top of pyruvate, FIG. 3A): further potentiated ampicillin | observed effect size of D-amino acid on β-lactam MIC ([3]; FIG. 1B, FIG. 2C): larger than for D-alanine

O=C(O)[C@H]1CCCN1 [D-proline]
change of ampicillin MIC, D-amino acid compared with L-isomer ([3]; cultures sensitized with pyruvate, alanine pair in dadA mutant, FIG. 2C): less robust than for other D-amino acids

N[C@H](CO)C(=O)O [D-serine]
metabolite-enabled MIC of β-lactams upon metabolite supplementation ([3]; FIG. 1B): lowest observed MICs | metabolite-enabled MIC, D-isomer compared with L-isomer [3]: outperformed their corresponding L-isomers

C[C@H](N)C(=O)O [L-alanine]
sensitivity of tolerant ΔdadA bacteria to ampicillin on amino acid supplementation alone [1]: equally insensitive to ampicillin | potentiation of ampicillin sensitivity of ΔdadA strain by amino acid [1]: no such potentiation was observed | change of ampicillin MIC on amino acid supplementation [3]: did not

CC1(C)S[C@@H]2[C@H](NC(=O)[C@H](N)c3ccccc3)C(=O)N2[C@H]1C(=O)O [ampicillin, reference compound]
killing of stationary phase cultures by the antibiotic alone ([2]; 24 hour treatment with 1 mg/ml ampicillin, cultures grown in LB 24 hours, FIG. 1A): not killed | potentiation of the antibiotic by D-amino acids [3]: specific to β-lactam antibiotics

O=C[C@@H](O)[C@H](O)[C@H](O)CO [arabinose]
ability of individual carbon source to restore β-lactam antibiotic sensitivity (CFU/mL) [2]: varying abilities to restore β-lactam antibiotic sensitivity

O=C(CO)[C@@H](O)[C@H](O)[C@H](O)CO [fructose]
ability of individual carbon source to restore β-lactam antibiotic sensitivity (CFU/mL) [2]: varying abilities to restore β-lactam antibiotic sensitivity

O=C(O)[C@H](O)[C@@H](O)[C@H](O)[C@H](O)CO [gluconate]
ability of individual carbon source to restore β-lactam antibiotic sensitivity (CFU/mL) [2]: varying abilities to restore β-lactam antibiotic sensitivity

OCC(O)CO [glycerol]
ability of individual carbon source to restore β-lactam antibiotic sensitivity (CFU/mL) [2]: varying abilities to restore β-lactam antibiotic sensitivity

OC[C@@H](O)[C@@H](O)[C@H](O)[C@H](O)CO [mannitol]
ability of individual carbon source to restore β-lactam antibiotic sensitivity (CFU/mL) [2]: varying abilities to restore β-lactam antibiotic sensitivity

CCN1CCN(C(=O)N[C@@H](C(=O)N[C@@H]2C(=O)N3[C@@H]2SC(C)(C)[C@@H]3C(=O)O)c2ccccc2)C(=O)C1=O [piperacillin, reference compound]
sensitization of tolerant bacteria to the antibiotic ([2]; metabolic stimulation by pyruvate and potentiation by D-amino acids, FIG. 2G): sensitized tolerant bacteria

CC1(C)[C@H](C(=O)O)N2C(=O)C[C@H]2S1(=O)=O [sulbactam, reference compound]
restoration of ampicillin sensitivity of resistant (ESBL) E. coli in stationary phase [4]: unable to restore sensitivity to ampicillin

O=C[C@H](O)[C@@H](O)[C@H](O)CO [xylose]
effect of carbon source on growth and population density (CFU) ([5]; cultures grown in 1% LB medium, 10 mM, no antibiotic, FIG. 7A right): did stimulate growth and an increase in population density | effect of carbon source on population density (CFU) ([5]; cultures grown in 100% LB medium, 10 mM, no antibiotic, FIG. 7A left): did not lead to an increase in population density | ability of individual carbon source to restore β-lactam antibiotic sensitivity (CFU/mL) [2]: varying abilities to restore β-lactam antibiotic sensitivity

gentamicin [reference compound]
potentiation of the antibiotic by D-amino acids [3]: specific to β-lactam antibiotics
